How the values were obtained:
S. aureus ATCC 29213 = experiment: Synergy with oxacillin and vancomycin, partial checkerboard broth microdilution; type: cell-based, Staphylococcus aureus; conditions: S. aureus ATCC 29213; for FIC (Oxa) / FIC (Van): MIC antibiotic in combination/MIC antibiotic alone; for MIC Oxa in Combination: oxacillin with the complex at ½ MIC (NH4PF6 250 µg/mL); for MIC Van in Combination: vancomycin with the complex at ½ MIC (NH4PF6 250 µg/mL)
[1] = tested on: S. epidermidis ATCC 12228; experiment: Time-kill test; type: cell-based, Staphylococcus epidermidis; conditions: 1 × MIC
Description: The time-kill experiments were performed as described previously. Briefly, inocula were prepared in TSB medium (TSB; […] BTL Sp. z o.o., Łódź, Poland). All samples were incubated at 35 °C and 80 rpm for varied time intervals (2, 4, 6, 12, 18, 24, 48h). The percentage of dead cells was calculated according to the growth control by determining the number of living cells (CFU/mL) of each tube using the agar plate count method. Samples were immediately serially diluted ten-fold in 0.01 M phosphate buffered saline (PBS, Bimed Lublin S.A., Lublin, Poland) at pH 7.0 and 10 μL aliquots were spot-inoculated in duplicate onto MHA plates. Agar plates were incubated at 37 °C overnight before determining the viable count. Two independent experiments were carried out.

[2] = tested on: Supercoiled plasmid pUC57 DNA; experiment: Cleavage of pUC57 DNA, agarose gel electrophoresis; type: biochemical; conditions: pUC57, 100, 200 and 300 µM
Description: DNA supercoiling plays a key role in gene expression and genome organization. The agarose gel electrophoresis assay was used to check whether the tested complexes 3a–3c are able to cleave DNA. Supercoiled plasmid pUC57 DNA (4634 bp); Thermo Scientific, ABO Sp. z o.o., Gdansk, Poland), was incubated with tested compounds (100, 200 and 300 µM). Next, loading buffer (1 μL) containing […] bromophenol blue, 0.25% xylene cyanol and 30% glycerol was added to allow the samples to be loaded into 1% w/v agarose gel. Electrophoresis was performed at 75 V in Tris-acetate- EDTA (TAE) buffer. The gel was stained using Midori green advance DNA stain (Genetics, ABO Sp. z o.o., Gdansk, Poland), and visualised under UV light with the BioRad Gel Doc 2000 system using LABWORK software (Hercules, California, USA). All experiments were carried out in triplicate under the same conditions.

## Cc1cc(C)[n+]2n1C(N)=[S+][Ru-]2[Cl].Cc1ccc(C(C)C)cc1.F[P-](F)(F)(F)(F)F [Compound 3a]
S. aureus ATCC 29213
  FIC (Oxa): 1
  FIC (Van): 1
  MIC Oxa in Combination: 0.250 µg/mL
  MIC Van in Combination: 0.50 µg/mL
[1]
  Time-kill: bacteriostatic or bactericidal: bacteriostatic
[2]
  Cleavage of plasmid DNA, in words: did not affect DNA structure

## CCc1cc(CC)[n+]2n1C(N)=[S+][Ru-]2[Cl].Cc1ccc(C(C)C)cc1.F[P-](F)(F)(F)(F)F [Compound 3b]
S. aureus ATCC 29213
  Correlation with Oxa and Van (synergy), in words: synergistic effects
  FIC (Oxa): 0.5
  FIC (Van): 0.25
  MIC Oxa in Combination: 0.125 µg/mL
  MIC Van in Combination: 0.125 µg/mL
[1]
  Time-kill: bacteriostatic or bactericidal: bacteriostatic
[2]
  Cleavage of plasmid DNA, in words: able to cut plasmid DNA

## [(η^6-p-cymene)Ru(1-[amino(thioxo)methyl]-5-hydroxy-3-phenyl-1H-pyrazole)PF6 [Compound 3c]
S. aureus ATCC 29213
  FIC (Oxa): 1
  FIC (Van): 1
  MIC Oxa in Combination: 0.250 µg/mL
  MIC Van in Combination: 0.50 µg/mL
[1]
  Time-kill: bacteriostatic or bactericidal: bactericidal
[2]
  Cleavage of plasmid DNA, in words: able to cut plasmid DNA
